Measurements reported in PMC4995097, “Talin-KANK1 interaction controls the recruitment of cortical microtubule stabilizing complexes to focal adhesions” (eLife, 2016).

Columns and labels:
Talin1 R7-R8 (1357–1659) = target: T1, Talin1 R7-R8 (1357–1659) (Mus musculus, UniProt P26039); test: Fluorescence polarization binding of BODIPY-labeled KANK peptides to talin1 R7-R8; parameters: species or system murine; details: Fluorescence polarization and HSQC (Figure 2C,F)
T1 construct: peptides to Talin1 R7-R8 (1357–1659) was measured using a Fluorescence Polarization assay; His-tag (cleaved yes); made in house; host or cells: E. coli BL21(DE3)
T1 sequence (P26039 1357-1659): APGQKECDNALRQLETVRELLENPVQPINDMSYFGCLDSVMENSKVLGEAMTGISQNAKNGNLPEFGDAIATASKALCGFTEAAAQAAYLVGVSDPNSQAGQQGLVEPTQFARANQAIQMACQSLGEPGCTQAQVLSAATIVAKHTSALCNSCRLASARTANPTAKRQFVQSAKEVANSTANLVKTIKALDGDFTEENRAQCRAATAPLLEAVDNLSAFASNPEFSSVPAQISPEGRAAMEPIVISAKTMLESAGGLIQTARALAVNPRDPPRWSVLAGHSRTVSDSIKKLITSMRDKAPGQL

[1] = system: focal adhesions in HeLa cells; test: FA number; format: cell-based, human; details: HeLa and HaCaT context; myosin-II inhibition
Method: (§1) HeLa Kyoto cell line was described previously ([Lansbergen et al., 2006]; [Mimori-Kiyosue et al., 2005]). HEK293T cells were purchased from ATCC; culture and transfection of DNA and siRNA into these cell lines was performed as previously described ([van der Vaart et al., 2013]). HaCaT cells were purchased at Cell Line Service (Eppelheim, Germany) and cultured according to manufacturer’s instructions. The cell lines were routinely checked for mycoplasma contamination using LT07-518 Mycoalert assay (Lonza, Switzerland).The identity of the cell lines was monitored by immunofluorescence-staining-based analysis with multiple markers. Blebbistatin was purchased from Enzo Life Sciences and used at 50 μM. Serum starvation in HeLa cells was done for 48 hr and focal adhesion assembly was stimulated by incubation with fetal calf serum-containing medium with or without blebbistatin for 2 hr. ROCK1 inhibitor Y-27632 was purchased at Sigma-Aldrich and used at 1 or 10 μM. Double stable HeLa cell line expressing GFP-KANK1 and TagRFP-paxillin was made by viral infection. We used a pLVIN-TagRFP-paxillin-based lentivirus and a pQC-GFP-KANK1-based retrovirus packaged in HEK293T cells using respectively Lenti-X HTX packaging and pCL-Ampho vectors. Antibiotic selection was applied to cells 48 hr after infection using 500 μg/ml G418 (Geneticin, Life Technologies) and 1 μg/ml puromycin (InvivoGen).
For presentation, images were adjusted for brightness and processed by Gaussian blur and Unsharp mask filter using ImageJ 1.47v (NIH). Fluorescence profiles are values measured by line scan analysis in ImageJ, normalized by background average fluorescence, expressed as a factor of the baseline value obtained for individual channel and plotted as a function of maximum length factor of the selection line (distance ratio). Protein clustering at the cell edge is the ratio of the total fluorescence in the first 5 μm from the cell edge to the next 5 μm measured by line scan analysis in ImageJ after thresholding for cell outline marking and out-of-cell region value assigned to zero. The results were plotted as percentage of control condition average value. FA counting and area measurement was performed using Analyze Particles under ImageJ on focal adhesion binary mask obtained after Gaussian blur/threshold-based cell outline marking and background subtraction (rolling ball radius, 10 pixels). KANK1/talin colocalization was analyzed using Pearson R value provided by Colocalization Analysis plugin under FiJi-ImageJ and a 3 μm diameter circular ROI centered on talin clusters detected by immunofluorescent staining.

[2] = system: LL5β at the cell edge of HeLa cells; test: Peripheral clustering of LL5β; format: cell-based, human
Method: as §1
Antibodies against HA and GFP tags, and liprin β1 used for Western blot analysis were previously described ([van der Vaart et al., 2013]). Rabbit antibodies against KANK1 (HPA005539) and KANK2 (HPA015643) were purchased at Sigma-Aldrich. Western blot analysis of KANK1 was performed using rabbit polyclonal KANK1 antibody (A301-882A) purchased at Bethyl Laboratories. Talin immunofluorescence staining was performed using mouse monoclonal 8d4 antibody (Sigma-Aldrich). Western blot analysis of talin 1 and 2 expression was performed using respectively the isotype specific mouse monoclonal 97H6 (Sigma-Aldrich) and 68E7 (Abcam) antibodies. Ku80 (7/Ku80) antibody was purchased from BD Biosciences. Immunofluorescence staining of KANK1, LL5β, liprin β1, KIF21A and CLASP2 in HeLa and HaCaT cells was performed using the antibodies and procedures previously described ([Lansbergen et al., 2006]; [van der Vaart et al., 2013]). F-actin was stained using Alexa Fluor 594-conjugated phalloidin (Life Technologies). Phospho-tyrosine mouse antibody (PT-66) was purchased from Sigma-Aldrich and rabbit FAK phospho-tyrosine 397 was purchased from Biosource.
Fixed samples and corresponding immunofluorescence images were acquired using widefield fluorescence illumination on a Nikon Eclipse 80i or Ni upright microscope equipped with a CoolSNAP HQ2 CCD camera (Photometrics) or a DS-Qi2 camera (Nikon) an Intensilight C-HGFI precentered fiber illuminator (Nikon), ET-DAPI, ET-EGFP and ET-mCherry filters (Chroma), Nikon NIS Br software, Plan Apo VC 100x NA 1.4 oil, Plan Apo Lambda 100X oil NA 1.45 and Plan Apo VC 60x NA 1.4 oil (Nikon) objectives. […]

| binding to talin (in words) (Talin1 R7-R8 (1357–1659)) | Compound | FA effect of blebbistatin (in words) [1] | Peripheral clustering of LL5β, percentage of control, average ([2]; blebbistatin 50 μM, FCS 2 h, mean, n = 30, SEM 4.45772) | clustering of CMSC components (in words) ([2]; blebbistatin, cell periphery) |
| --- | --- | --- | --- | --- |
| abolished binding to talin | PYFVETPYGFQAAAAFVKYVDDIQKGNTIKKLNIQKRRKC [KANK1-4A, KANK1 KN peptide with LDLD motif mutated to AAAA] |  |  |  |
|  | Cc1ccc2c(c1)C(=O)C1(O)CCN(c3ccccc3)C1=N2 (stereo not shown) [blebbistatin, reference compound] | FA disassembly | 29.4558 percentage of control condition average value | strong reduction in clustering of CMSC components at the cell periphery |
